Entries after “also recorded” stand apart in the source; their conditions may differ.
What was measured:
ciliated cells = assay: Reconstitution of adherence of B. pertussis mutant BPTOX6 to ciliated cells by exogenous PT and subunits; format: cell-based; conditions: PT component 50 ug/ml coated on BPTOX6; 10^7 bacteria, 10^5 rabbit ciliated cells, 3 hours; mean ± standard deviation
Protocol: (§1) The ability of PT or the individual subunits to act as adhesins for PT-deficient bacteria to eukaryotic cells was assessed as described by Tuomanen et al (1985). Infect. Dis. 153, 118-125 and Relman et al (199) Cell 61, 1375-1382. […] For the test reported in Table 1 PT or its individual subunits (50 ug/ml) were incubated for 30 minutes with strain BPTOX6 for ciliated cell assays or BP101/TOX6 for macrophage assays in order to coat the bacteria with adhesin. 10^7 bacteria were then incubated for 3 hours with 10^5 ciliated cells or alveolar macrophages harvested from healthy rabbits (2,4). Adherence was detected by staining of the bacteria with a 1:40 dilution of fluorescein conjugated anti-Bordetella antibody (Difco, Detroit, Mich.). Values are expressed as the mean ±standard deviation of the number of bacteria per eukaryotic cell, 25 cells/test, and each test repeated in triplicate. The procedure is described in more detail in Saukkonen et al Proc. Natl. Acad. Sci. 89,118-122 (1991).

GMP140 = assay: Inhibition of adhesion of neutrophils to GMP140 (FIG. 4B); format: cell-based; conditions: protein at 50 ug/ml, compared to buffer control
Protocol: (§2) In the study, the proteins PT, B-oligomer, S2, S3, S2/S3 and S3/S2 were taken up in an isotonic buffered tissue culture medium to a concentration of 50 ug/ml and the ability of each of them to inhibit adhesion of neutrophils to ELAM or GMP140 was determined as described by Wright et al J. Exp. Med. 158:2016 (1983). The buffer was employed as the control and each protein studied was compared to the control for the ability to decrease adhesion capacity.

[1] = tested on: leukocytes in cerebrospinal fluid; assay: Rabbit model of pneumococcal meningitis: leukocytes in cerebrospinal fluid (FIG. 6b, 7B); format: in vivo; conditions: rabbits with established pneumococcal meningitis; intravenous PT or B-oligomer
From the text: This is shown experimentally in FIG. 6b. In the experiments rabbits with established pneumonococcal meningitis received intravenous PT or B-oligomer.
FIG. 7B illustrates the use of anti S-segment antibodies to decrease the inflammation in a rabbit model of meningitis. Rabbits with established pneumonococcal meningitis received antibodies to intact PT or PT subunits: S2:3A12, S3:6F8 and S4:9C6.

ELAM = assay: Assay 1: inhibition of adherence of neutrophils to ELAM-coated surfaces (FIG. 4); format: cell-based; conditions: protein at 50 ug/ml, compared to buffer control
Protocol: as §2
Assay 1 is inhibition of adherence of enutrophils to ELAM-coated surfaces as described in connection with FIG. 4. Values ±20% inhibition are significant.

alveolar macrophages = assay: Reconstitution of adherence of B. pertussis mutant BP101/TOX6 to macrophages by exogenous PT and subunits; format: cell-based; conditions: PT component 50 ug/ml coated on BP101/TOX6; 10^7 bacteria, 10^5 rabbit alveolar macrophages, 3 hours; mean ± standard deviation
Protocol: as §1

[2] = Carbohydrate recognition: binding to glycolipids separated by thin layer chromatography (FIG. 3)
From the text: The variability in the S2 and S3 segments shown in FIG. 1 SEQ ID NOS:42-47 is, quite clearly responsible for the variation in carbohydrate binding properties of PT, S2 and S3 which have been observed.
The peptides S2/S3 and S3/S2 are novel therapeutic agents and are specifically included within the scope of this invention, as are the genes which express them.
In FIG. 3, the dark bars represent the positions of glycolipids after separation by thin layer chromatography in accordance with the method of Tuomanen et al, J. Exp Med 168:267, 1988.

Substance: pertussis toxin [PT]
- Number of bacteria/target cell, Ciliated Cell (ciliated cells): 6.7 ± 0.8 bacteria/target cell
- inhibition of neutrophil adhesion to GMP140 (GMP140): 30%
- accumulation of leukocytes in cerebrospinal fluid [1]: decreased the accumulation of leukocytes in cerebrospinal fluid
- inhibition of neutrophil/leukocyte adherence to ELAM (ELAM): 60%
- Number of bacteria/target cell, Macrophage (alveolar macrophages): 21 ± 2.3 bacteria/target cell
- carbohydrates (glycolipids) recognized [2]: binds to lactosylceramide, glucosylceramide, sulfatides and gangliosides; also recorded: recognize lactosylaceramide, and gangliosides
